Reference: patent US20220241369A1, “COMPOSITIONS AND METHODS OF MODULATING INFLAMMATION” (La Jolla Institute for Allergy and Immunology, priority 2018, published 2022)

Experiments:
[1] = test system: OVA-induced food allergy (allergic diarrhea); assay: IgE-mediated experimental food allergy, i.g. pretreatment with HRF inhibitor before each OVA challenge; format: in vivo, mouse; conditions: i.g. pretreatment; serum ELISA
Experimental: FIGS. 1A-1I show GST-N19 inhibits the development of diarrhea and intestinal mastocytosis in murine food allergy. Mice were i.p. sensitized with OVA ([…]) plus alum on days 0 and 14. From day 28, mice were i.g. challenged with OVA (50 mg) three times a week. Sensitized mice were either non-pretreated (−) or i.g. pretreated with 100 μg of GST or GST-N19 (N19). (FIG. 1A) Procedure scheme. (FIG. 1B) The development of diarrhea was monitored for 90 min after each OVA challenge. (n=5 for non-sensitized group, n=3 for inhibitor non-pretreated group, n=4 for GST group, n=6 for N19 group, data are representative of at least 3 independent experiments) Log-rank test: p=0.028 (GST vs. GST-N19), p=0.036 (control vs. GST-N19). […] (FIG. 1C-FIG. 1E) Total IgE, IgG1, HRF, and HRF-reactive IgE and IgG in sera were measured by ELISA. (FIG. 1F) Serum mMCP-1 was also measured by ELISA. (FIG. 1G) Sections of jejunum were stained with chloroacetate esterase to identify mast cells. Sections indicated by rectangles are enlarged in lower rows. Bar=100 μm in large pictures and 50 μm in insets. (FIG. 1H) Flow cytometry was performed to enumerate MMC9s (Lin^−c-Kit^+ST2^+IL-17RB^−Integrin β7^lo) in jejunum. (n=14 for non-sensitized group, n=15 for inhibitor non-pretreated group, n=9 for GST group, n=9 for GST-N19 group, pooled data of 3 independent experiments) (FIG. 1I) Cytokine mRNAs in jejunum were quantified by qRT-PCR. *, **: p<0.05, p<0.01 by ANOVA with Tukey's multiple comparison.
Mice were i.p. sensitized with OVA (50 μg/mouse) plus alum on days 0 and 14. From day 28, mice were i.g. challenged with OVA (25 or 50 mg) or PBS (control) three times a week. Before each challenge, mice were starved for 3 h, then i.g. pretreated with GST, GST-N19 (100 μg/mouse), synthetic N19 peptide, or HRF-2CA. The development of diarrhea was monitored for 90 min after OVA challenge. Diarrhea severity (30) was based on states of stool: solid (score 0), funicular (score 1), slurry (score 2), and watery (score 3).
For histologic analysis, jejunal tissue was fixed in 10% formalin. Mast cells in jejunal sections were detected by chloroacetate esterase staining. IgE, IgG, IgG1, IgG2a, mMCP-1, HRF, HRF-reactive IgE, and HRF-reactive IgG 24 h after the last OVA challenge were measured by ELISA (see Supplemental Information). Cytokine mRNAs in jejunum were quantified by qRT-PCR.
Twenty-four hours after the last OVA challenge, mice were sacrificed and small intestines (0.5-15 cm from stomach) were collected. The intestinal tissues were opened longitudinally and washed with HBSS. The washed tissues were incubated with 5 mM EDTA-HBSS for 30 min at 4° C., transferred to 30 ml HBSS in 50 ml tubes, and vigorously shaken to remove intestinal epithelial cells. The tissues were then washed with 10 ml of 10% FCS RPMI medium. Tissues were cut into tiny pieces and incubated with 2.4 mg/ml Collagenase D and 0.2 mg/ml DNase for 30 min at 37° C. Then cells were washed, resuspended in 44% Percoll solution, and slowly loaded on the top of 67% Percoll solution. The cells were centrifuged (1800 rpm, 20 min) and lymphocyte fractions were collected and used for detection of MMC9s (Lin^−c-Kit^+ST2^+IL-17RB^−Integrin β7^lo).
The cells were first incubated with 2.4G2 for 15 min at 4° C. and further incubated with Abs (PE-anti-07 integrin mAb (clone FIB504), PerCP/Cy5.5-anti-CD4 mAb (clone RM4-5), PerCP/Cy5.5-anti-CD8 mAb (clone 53-6.7), PerCP/Cy5.5-anti-CD11b mAb (clone M1/70), PerCP/Cy5.5-anti-CD11c mAb (clone N418), PerCP/Cy5.5-anti-B220 mAb (RA3-6B2), PerCP/Cy5.5-anti-Ly-6G/Ly-6C mAb (clone RB6-8C5), PerCP/Cy5.5-anti-CD335 mAb (clone 29A1.4), AlexaFluor647-anti-IL-17RB (clone 9B10), APC/Cy7-anti-CD117 (clone 2B8), Biotin-anti-ST2 (clone DIH9)) (Biolegend) for 30 min at 4° C. After washed, the cells were incubated with SA-BV421 (Biolegend) for 30 min at 4° C. MMC9 population was identified using FACS Canto. Data were analyzed using FlowJo software.

[2] = test system: c-Kit+ mucosal mast cells of the small intestine; assay: Ex vivo mast cell activation test (MCAT); format: cell-based, mouse; conditions: cells from allergic mice, HRF-2CA 300 μg/ml
Experimental: FIGS. 2A-2C show mucosal mast cells can be activated ex vivo by antigen. Cells were released with EDTA from small intestines of non-sensitized/OVA challenged (Cont) or OVA-sensitized/OVA-challenged (OVA) mice, and mononuclear cells were selected. The cells were incubated for 15 min at 37° C. with OVA or anti-IgE antibody, and activation of Kit^+ mast cells was measured by flow cytometry (FIG. 2A, FIG. 2B). **, ***: p<0.01, p<0.001 by Student's t-test. (n=2; a representative of 2 independent experiments) (FIG. 2C) Mucosal cells derived from OVA-sensitized/OVA-challenged mice were stimulated with PBS (n=4), OVA (10 ng/ml, n=4) or HRF dimer (100 μg/ml, n=2) in the presence or absence of HRF-2CA (300 μg/ml).
FIGS. 11A-11C show HRF dimer, but not monomer can activate mast cells. (FIG. 11A) Purified dimeric and monomeric HRF expressed in E. coli. Recombinant HRF-[…] was purified first by Histrap HP and then Sephacryl S-200 HR16/60. Two peaks were observed by Sephacryl size fractionation. The first (Fr1) and second (Fr3) peaks contained dimer and monomer, respectively, as shown by SDS-PAGE. Fr1 and Fr3 were used for mast cell stimulation. (FIG. 11B) Cells were released with 10 mM EDTA from small intestines of OVA-sensitized/OVA-challenged mice, and mononuclear cells were selected. The cells were incubated for 15 min at 37° C. with mHRF monomer or dimer (100 μg/ml), or PBS, and Kit^+ mast cell activation (LAMP-1^+) was measured by flow cytometry (n=3). (FIG. 11C) Control experiments indicate an excellent specificity of the assay for HRF multimers. HRF-2CA (2CA) was used as a monomer control (n=2 for each concentration). Note that total concentrations of the 1:9 mixture of dimer:monomer gave almost the same luminescence values as did ten-fold less concentrations of dimer.
Twenty-four hours after the last OVA challenge, mice were sacrificed and small intestines (0.5-15 cm from stomach) were collected. The intestinal tissues were opened longitudinally and washed with PBS. Then, the tissues were incubated with 10 mM EDTA-PBS for 30 min at 37° C. After incubation, the tissues were transferred to 30 ml PBS in 50 ml tubes and vigorously shaken. After washed, the cells were resuspended in 40% Percoll solution and slowly loaded on the top of 75% Percoll solution. The cells were then centrifuged (2000 rpm, 20 min) and lymphocytes were collected. The cells were once centrifuged and resuspended in Tyrode's buffer. Abs (Biotin-anti-CD4 mAb (clone RM4-5), Biotin-anti-CD8 mAb (clone 53-6.7), Biotin-anti-B220 mAb (clone RA3-6B2), Biotin-anti-CD326 mAb (clone G8.8), PE-anti-CD117 (clone 2B8), AlexaFluor647-anti-LAMP-1 mAb (clone 1D4B)) (Biolegend) were added and cells were then stimulated with OVA, anti-IgE (clone RME-1, BioLegend) and recombinant dimeric murine HRF for 15 min at 37° C. After activation, cells were washed and incubated with FITC-streptavidin (Catalog #405202, Biolegend) for 30 min at 4° C. LAMP-1 expression was detected using FACS Calibur. Data were analyzed using FlowJo software.

[3] = test system: BEAS-2B human bronchial epithelial cells; assay: HRF secretion, western blot, BEAS-2B; format: cell-based; conditions: cultured cells scraped and treated with adenosine and ATP
Description: As lung epithelial cells are exposed to the environment, HRF secretion was studied using BEAS-2B human bronchial epithelial cells. A small amount of HRF was secreted constitutively, but house dust mite allergens induced the secretion of high-molecular-weight HRF species (HMW-HRFs). Various cytokines including epithelial derived cytokines as well as Th2 cytokines and proinflammatory cytokines further enhanced HDM-induced secretion of HMW-HRFs.
Cultured cells were scraped and treated with adenosine and ATP, which should be abundantly present in inflammatory or injured tissues. These conditions induced secretion of HRF monomer, dimer and HMW-HRFs like stimulation with HDM plus cytokines.
Culture supernatants were analyzed by SDS-PAGE under nonreducing (−DTT) and reducing (+DTT) conditions, followed by western blotting for HRF probing. HDM-induced HRF secretion was enhanced not only by Th2 cytokines (IL-4, IL-5, and IL-13), but also by epithelial derived cytokines (IL-25, IL-33, and TSLP) and proinflammatory cytokines (IL-1beta, IL-6 and TNF). med, medium alone; US, unstimulated; HDM, house dust mite; CR, cockroach; RW, ragweed; Af, Aspergillus fumigatus. Arrowhead, HRF monomer.

IgE+ mMCP-1+ mast cells = assay: Localization of gavaged HRF inhibitors in jejunum by confocal microscopy; format: in vivo, mouse; conditions: mice with allergic diarrhea, 1 h after i.g. gavage of 0.1 mg, anti-GST staining
Experimental: HRF multimers in the jejunum of non-sensitized/OVA challenged (Cont, n=6) or OVA-sensitized/OVA-challenged (OVA, n=5) mice were quantified by a newly developed ELISA (FIG. 3A, FIG. 3C). HRF was also measured by ELISA (FIG. 3B). HRF dimer and monomer were quantified by western blotting in control (Cont) and food allergic mice treated without (OVA) or with GST (GST) or GST-N19 (N19) (n=5 for each group) (FIG. 3D). Allergic diarrhea was induced by 6 challenges. On the day of 7th challenge, the mice were gavaged with 0.1 mg of GST or GST-N19 (FIG. 3E). One hour later, mice were sacrificed without OVA challenge. Jejunum tissues were stained for GST, IgE, and mMCP-1 before confocal microscopy (n=5 for GST and n=6 for GST-N19). Arrows indicate cells positive for GST or GST-N19 as well as IgE and mMCP-1. […] Bars=50 μm.
Jejunum biopsy was fixed in 4% paraformaldehyde at 4° C., washed in 10-20% sucrose in phosphate buffered saline, and embedded in O.C.T. compound (Sakura Finetek, Japan). Cyrosections were made in 6 μm and blocked with 2% skim milk. Immunostaining was performed with anti-HRF (rabbit polyclonal FL-172), anti-GST (rabbit polyclonal Z-5) (Santa Cruz Biotechnology), anti-IgE (clone RME-1 from Biolegend and clone R35-72 from BD Biosciences), anti-mMCP1 (Catalog #AF5146, R&D Systems), anti-CD45 (clone 30-F11), anti-CD63 (clone NVG-2) (Biolegend), and anti-Siglec F (clone E50-2440, BD Biosciences) as primary antibodies, and anti-Rabbit Alexa Fluor 647 (Catalog #A21245), anti-Rat Alexa Fluor 568 (Catalog #A11077), and anti-Sheep Alexa Fluor 555 (Catalog #A11015) (Thermo Fisher Scientific) as secondary antibodies. Coverslips were mounted with Prolong Gold with DAPI (Thermo Fisher Scientific) and fluorescence was observed under Leica TCS SP2 confocal microscopy (Leica) and Nuance Multi spectral Imaging System (PerkinElmer).
Applicant next tested whether HRF inhibitors target mucosal mast cells. To this end, mice with allergic diarrhea were i.g. gavaged with GST-N19 or GST, and their location was identified 1 h after their gavage.

## synthetic N19 peptide: synthesized N19 peptide (N-terminal 19 amino acids of HRF); HRF inhibitor (MIIYRDLISHDEMFSDIYK)
[1]
  levels of total IgE, IgG1, IgG2a or HRF-reactive IgE and IgG: failed to affect
[2]; HRF dimer 100 μg/ml
  HRF-induced activation of mucosal mast cells: significantly suppressed
[2]; OVA 10 ng/ml
  OVA-induced activation of mucosal mast cells: significantly suppressed

## Nc1ncnc2c1ncn2[C@@H]1O[C@H](COP(=O)(O)OP(=O)(O)OP(=O)(O)O)[C@@H](O)[C@H]1O [ATP]
[3]
  secretion of HRF monomer, dimer and HMW-HRFs: induced

## GST: GST protein used as control for GST-N19 [reference compound]
IgE+ mMCP-1+ mast cells
  IgE+ mMCP-1+ mast cells co-localized with the substance: 34%

## Nc1ncnc2c1ncn2[C@@H]1O[C@H](CO)[C@@H](O)[C@H]1O [adenosine]
[3]
  secretion of HRF monomer, dimer and HMW-HRFs: induced
